Measured values: patent US8586611B2 (priority 2005, dated 2013)
Where two headings read alike, the source gives them in different places.

Key:
Type in all cases: in vivo
[1] = tested on: Erysiphe graminis f. sp. tritici; assay: Test E: wheat powdery mildew, spray the day before inoculation (disease rating, 100 = 100% disease control); settings: for pest or weed control at 40 ppm: Blumeria graminis, topical, 168 h, read-out: Test E disease rating (100 = 100% disease control, 0 = no disease control)
Description: (§1) The test compounds were first dissolved in acetone in an amount equal to 3% of the final volume and then suspended at the desired concentration (in ppm) in acetone and purified water (50/50 mix by volume) containing 250 ppm of the surfactant Trem® 014 (polyhydric alcohol esters). The resulting test suspensions were then used in tests A-E. Spraying a 200 ppm test suspension to the point of run-off on the test plants was the equivalent of a rate of 500 g/ha.
The test suspension was sprayed to the point of run-off on wheat seedlings. The following day the seedlings were inoculated with a spore dust of Erysiphe graminis f. sp. tritici, (the causal agent of wheat powdery mildew) and incubated in a growth chamber at 20° C. for 7 days, after which disease ratings were made.
(§2) Results for Tests A-F are given in Table A. In the table, a rating of 100 indicates 100% disease control and a rating of 0 indicates no disease control (relative to the controls). A dash (-) indicates no test results.

Phytophthora infestans [2] = assay: whole plant or invertebrate; settings: for Test D disease rating (100 = 100% disease control, 0 = no disease control): tomato late blight; for pest or weed control at 40 ppm: Phytophthora infestans, in Solanum lycopersicum, topical, 96 h, read-out: Test D disease rating (100 = 100% disease control, 0 = no disease control)
Plasmopara viticola = assay: Test B: grape downy mildew, spray 24 h after inoculation (disease rating, 100 = 100% disease control); settings: for pest or weed control at 40 ppm: Plasmopara viticola, 144 h, read-out: Test B disease rating (100 = 100% disease control, 0 = no disease control)
Description: as §1
Grape seedlings were inoculated with a spore suspension of Plasmopara viticola (the causal agent of grape downy mildew) and incubated in a saturated atmosphere at 20° C. for 24 h. After a short drying period, the test suspension was sprayed to the point of run-off on the grape seedlings and then moved to a growth chamber at 20° C. for 5 days, after which the test units were placed back into a saturated atmosphere at 20° C. for 24 h. Upon removal, disease ratings were made.
as §2

Phytophthora infestans [3] = assay: whole plant or invertebrate; settings: for Test C disease rating (100 = 100% disease control, 0 = no disease control): tomato late blight; for pest or weed control at 40 ppm: Phytophthora infestans, in Solanum lycopersicum, 144 h, read-out: Test C disease rating (100 = 100% disease control, 0 = no disease control)
[4] = spray the day before inoculation, compounds without asterisk (not 40 or 10 ppm)
[5] = spray 17 h after inoculation, compounds without asterisk (not 40 or 10 ppm)
[6] = spray 24 h after inoculation, compounds without asterisk (not 40 or 10 ppm)
[7] = sprayed the day before inoculation, 7 days at 20° C., unmarked compounds (no asterisk, not 40 or 10 ppm)
[8] = sprayed 17 h after inoculation, unmarked compounds (no asterisk, not 40 or 10 ppm)
[9] = sprayed 24 h after inoculation, unmarked compounds (no asterisk, not 40 or 10 ppm)
[10] = sprayed the day before inoculation, unmarked compounds (no asterisk, not 40 or 10 ppm)
[11] = spray the day before inoculation, tested at 40 ppm
[12] = spray 24 h after inoculation, tested at 40 ppm
[13] = sprayed 17 h after inoculation, tested at 10 ppm (**)
[14] = sprayed 24 h after inoculation, tested at 10 ppm (**)
[15] = sprayed the day before inoculation, tested at 10 ppm (**)

SMILES | Test E disease rating (100 = 100% disease control, 0 = no disease control) [1, 4] [%] | Test B disease rating (100 = 100% disease control, 0 = no disease control) (Plasmopara viticola; [6]) [%] | Test C disease rating (100 = 100% disease control, 0 = no disease control) (Phytophthora infestans [3]; [4]) [%] | Test B disease rating (100 = 100% disease control, 0 = no disease control) (Plasmopara viticola; [9]) | Test C disease rating (100 = 100% disease control, 0 = no disease control) (Phytophthora infestans [3]; [10]) | other results
Cc1cc(C(F)(F)F)nn1CC(=O)N1CCC(c2nc(C(=O)N(C)C3CCC(C)c4ccccc43)cs2)CC1 (mixture of isomers) [compound 192] | 0 | 97 | 100 | – | – | Test D disease rating (100 = 100% disease control, 0 = no disease control) (Phytophthora infestans [2]; [5]): 99%
Cc1cc(C(F)(F)F)nn1CC(=O)N1CCC(c2nc(C(=O)N(C)C3CCCC4CCCCC43)cs2)CC1 (mixture of isomers) [compound 254] | – | – | – | 95 | 99 | Test E disease rating (100 = 100% disease control, 0 = no disease control) [1, 7]: 0; Test D disease rating (100 = 100% disease control, 0 = no disease control) (Phytophthora infestans [2]; [8]): 99
Cc1cc(C(F)(F)F)nn1CC(=O)N1CCC(c2nc(C(=O)N(C)[C@@H]3CC[C@@H](O)c4ccccc43)cs2)CC1 (racemic) [Compound 206, N-methyl-2-[1-[[5-methyl-3-(trifluoromethyl)-1H-pyrazol-1-yl]acetyl]-4-piperidinyl]-N-[(1R,4R)-1,2,3,4-tetrahydro-4-hydroxy-1-naphthalenyl]-4-thiazolecarboxamide] | – | – | – | – | – | pest or weed control at 40 ppm [1, 11]: 0%; pest or weed control at 40 ppm (Phytophthora infestans [2]): 99%; pest or weed control at 40 ppm (Plasmopara viticola; [12]): 99%; pest or weed control at 40 ppm (Phytophthora infestans [3]): 100%
Cc1cc(C(F)(F)F)nn1CC(=O)N1CCC(c2nc(C(=O)N(C)C3c4ccccc4CC3O)cs2)CC1 (racemic) [compound 200] | – | – | – | – | – | Test E disease rating (100 = 100% disease control, 0 = no disease control) [1, 11]: 0%; Test D disease rating (100 = 100% disease control, 0 = no disease control) (Phytophthora infestans [2]; spray 17 h after inoculation, tested at 40 ppm): 98%; Test B disease rating (100 = 100% disease control, 0 = no disease control) (Plasmopara viticola; [12]): 39%; Test C disease rating (100 = 100% disease control, 0 = no disease control) (Phytophthora infestans [3]; [11]): 98%
Cc1cc(C(F)(F)F)nn1CC(=O)N1CCC(c2nc(C(=O)N(C)[C@@H]3CCCc4ccccc43)co2)CC1 [Compound 151, N-methyl-2-[1-[[5-methyl-3-(trifluoromethyl)-1H-pyrazol-1-yl]acetyl]-4-piperidinyl]-N-[(1R)-1,2,3,4-tetrahydro-1-naphthalenyl]-4-oxazolecarboxamide] | – | – | – | – | – | pest or weed control at 40 ppm [1, 11]: 0%; pest or weed control at 40 ppm (Phytophthora infestans [2]): 99%; pest or weed control at 40 ppm (Plasmopara viticola; [12]): 99%; pest or weed control at 40 ppm (Phytophthora infestans [3]): 100%
Cc1ccc(C)c(CC(=O)N2CCC(c3nc(C(=O)N(C)C(C#N)c4ccccc4)cs3)CC2)c1 (centres unmarked) [compound 102] | 0 | 100 | 99 | – | – | –
C=CC(c1ccccc1)N(C)C(=O)c1csc(C2CCN(C(=O)Cc3cc(C)ccc3C)CC2)n1 (centres unmarked) [compound 103] | 79 | 100 | 71 | – | – | –
C=CCC(c1ccccc1)N(C)C(=O)c1csc(C2CCN(C(=O)Cc3cc(C)ccc3C)CC2)n1 (centres unmarked) [compound 104] | 0 | 100 | 87 | – | – | –
Cc1ccc(C)c(CC(=O)N2CCC(c3nc(C(=O)N(C)[C@H](C)c4cccc5ccccc45)cs3)CC2)c1 [compound 105] | 0 | 96 | 100 | – | – | –
Cc1ccc(C)c(CC(=O)N2CCC(c3nc(C(=O)N(C)[C@H](C)c4ccc5ccccc5c4)cs3)CC2)c1 [compound 106] | 0 | 0 | 24 | – | – | –
CC[C@H](c1ccccc1)N(C)C(=O)c1csc(C2CCN(C(=O)Cc3cccc(Br)c3)CC2)n1 [compound 107] | 0 | 99 | 100 | – | – | –
CC[C@H](c1ccccc1)N(C)C(=O)c1csc(C2CCN(C(=O)Cc3cccc(C(F)(F)F)c3)CC2)n1 [compound 108] | 0 | 99 | 100 | – | – | –
COCC(c1ccccc1)N(C)C(=O)c1csc(C2CCN(C(=O)Cc3cc(C)ccc3C)CC2)n1 (centres unmarked) [compound 109] | 94 | 99 | 99 | – | – | –
COc1ccc(CCN(C)C(=O)c2csc(C3CCN(C(=O)Cc4cc(C)ccc4C)CC3)n2)cc1OC [compound 171] | 0 | 0 | – | – | – | Test D disease rating (100 = 100% disease control, 0 = no disease control) (Phytophthora infestans [2]; [5]): 24%
Cc1cc(C(F)(F)F)nn1CC(=O)N1CCC(n2nnc(C(=O)N(C)[C@@H]3CCCc4ccccc43)n2)CC1 [compound 256] | – | – | – | – | – | Test D disease rating (100 = 100% disease control, 0 = no disease control) (Phytophthora infestans [2]; sprayed 17 h after inoculation, tested at 40 ppm (*)): 86; Test B disease rating (100 = 100% disease control, 0 = no disease control) (Plasmopara viticola; sprayed 24 h after inoculation, tested at 40 ppm (*)): 99; Test C disease rating (100 = 100% disease control, 0 = no disease control) (Phytophthora infestans [3]; sprayed the day before inoculation, tested at 40 ppm (*)): 100
Cc1cc(Cl)nn1CC(=O)N1CCC(c2nc(C(=O)N(C)[C@@H]3CCCc4ccccc43)cs2)CC1 [compound 257] | – | – | – | – | – | Test D disease rating (100 = 100% disease control, 0 = no disease control) (Phytophthora infestans [2]; [13]): 99; Test B disease rating (100 = 100% disease control, 0 = no disease control) (Plasmopara viticola; [14]): 99; Test C disease rating (100 = 100% disease control, 0 = no disease control) (Phytophthora infestans [3]; [15]): 100
Cc1cc(Br)nn1CC(=O)N1CCC(c2nc(C(=O)N(C)[C@@H]3CCCc4ccccc43)cs2)CC1 [compound 258] | – | – | – | – | – | Test D disease rating (100 = 100% disease control, 0 = no disease control) (Phytophthora infestans [2]; [13]): 99; Test B disease rating (100 = 100% disease control, 0 = no disease control) (Plasmopara viticola; [14]): 100; Test C disease rating (100 = 100% disease control, 0 = no disease control) (Phytophthora infestans [3]; [15]): 100
C[C@H](NC(=O)c1csc(C2CCN(C(=O)Cc3ccccc3Cl)CC2)n1)c1ccccc1 [compound 260] | – | – | – | 14 | 0 | Test E disease rating (100 = 100% disease control, 0 = no disease control) [1, 7]: 0
Cc1cc(C(F)(F)F)nn1CC(=O)N1CCC(c2nc(C(=O)N[C@H](C)c3ccccc3)cs2)CC1 [compound 301] | – | – | – | 99 | 99 | Test D disease rating (100 = 100% disease control, 0 = no disease control) (Phytophthora infestans [2]; [8]): 80
CCN(C(=O)c1csc(C2CCN(C(=O)Cn3nc(C(F)(F)F)cc3C)CC2)n1)[C@H](C)c1ccccc1 [compound 302] | – | – | – | 86 | 95 | Test D disease rating (100 = 100% disease control, 0 = no disease control) (Phytophthora infestans [2]; [8]): 26
CCCN(C(=O)c1csc(C2CCN(C(=O)Cn3nc(C(F)(F)F)cc3C)CC2)n1)[C@H](C)c1ccccc1 [compound 303] | – | – | – | 45 | 95 | Test D disease rating (100 = 100% disease control, 0 = no disease control) (Phytophthora infestans [2]; [8]): 26
C=CCN(C(=O)c1csc(C2CCN(C(=O)Cn3nc(C(F)(F)F)cc3C)CC2)n1)[C@H](C)c1ccccc1 [compound 304] | – | – | – | 72 | 57 | Test D disease rating (100 = 100% disease control, 0 = no disease control) (Phytophthora infestans [2]; [8]): 26
Cc1cc(C(F)(F)F)nn1CC(=O)N1CCC(c2nc(C(=O)N[C@@H]3CCCc4ccccc43)cs2)CC1 [compound 305] | – | – | – | 100 | 100 | Test D disease rating (100 = 100% disease control, 0 = no disease control) (Phytophthora infestans [2]; [8]): 99
CCN(C(=O)c1csc(C2CCN(C(=O)Cn3nc(C(F)(F)F)cc3C)CC2)n1)[C@@H]1CCCc2ccccc21 [compound 306] | – | – | – | 96 | 100 | Test D disease rating (100 = 100% disease control, 0 = no disease control) (Phytophthora infestans [2]; [8]): 83
